melting point	Compound
199 to 200 °C	CCCn1nc2c(N)nc3ccccc3c2c1NC(C)C [Example 36, N^1-Isopropyl-2-propyl-2H-pyrazolo[3,4-c]quinoline-1,4-diamine]
200 to 201 °C	CCCn1nc2c(N)nc3ccccc3c2c1NC [Example 35, N^1-Methyl-2-propyl-2H-pyrazolo[3,4-c]quinoline-1,4-diamine]
203 to 206 °C	CCCn1nc2c(N)nc3ccccc3c2c1NCCC1CCN(C(C)=O)CC1 [Example 6, N^1-[2-(1-Acetylpiperidin-4-yl)ethyl]-2-propyl-2H-pyrazolo[3,4-c]quinoline-1,4-diamine]
160 to 161 °C	CCCn1nc2c(N)nc3ccccc3c2c1NCc1ccccc1 [Example 37, N^1-Benzyl-2-propyl-2H-pyrazolo[3,4-c]quinoline-1,4-diamine]

Second part, the molecule before the results:

Compound	melting point
CCCn1nc2c(N)nc3ccccc3c2c1N [Example 1, 2-Propyl-2H-pyrazolo[3,4-c]quinoline-1,4-diamine]	253 °C (dec.)
CCCn1nc2c(N)nc3ccccc3c2c1NCC [Example 2, N^1-Ethyl-2-propyl-2H-pyrazolo[3,4-c]quinoline-1,4-diamine]	193 to 194 °C
CCCn1nc2c(N)nc3ccccc3c2c1NCCC1CCN(C(=O)NC(C)C)CC1 [Example 5, 4-{2-[(4-Amino-2-propyl-2H-pyrazolo[3,4-c]quinolin-1-yl)amino]ethyl}-N-isopropylpiperidine-1-carboxamide]	168 to 170 °C
